# According to patent US8653052B2, “Drug combination and its use in the treatment of muscle loss” (Acacia Pharma Limited, priority 2007, dated 2014):
# Structures can show the parent of a compound that is named as a salt.
# Experiments:
# [1] = test system: cancer patients; details: cited from earlier work; for Effect on appetite, calorie intake and nutritional status: several clinical trials
# [2] = as reported in U.S. Pat. No. 5,449,694; cited from earlier work
# [3] = test system: tumour bearing rats (AH-130 Yoshida ascites hepatoma); assay: Yoshida AH-130 rat ascites hepatoma cachexia model, initial experiment: total food intake; assay type: in vivo; details: at day 3, racemic formoterol 10 μg/kg/day, alone or with megestrol acetate 100 mg/kg/day
# From the text: This study involves the use of the Yoshida AH-130 rat ascites hepatoma model, which is a particularly suitable model system for studying the mechanisms involved in the establishment of cachexia. Its growth in the host causes rapid and progressive loss of bodyweight and tissue wasting, particularly in skeletal muscle. […] Co-administration of each of these β2 agonists with the progestin, megestrol acetate, is also investigated.
# Wistar rats weighing about 100 g are used (Busquets et al 2004, Cancer Res 64:6725-6731). The animals are maintained on a regular light-dark cycle (light from 08.00 am to 8.00 pm) with free access to food and water. Their diet consists of 54% carbohydrate, 17% protein and 5% fat, and the food intake is measured daily. Rats are given an intraperitoneal inoculum of 10^8 AH-130 Yoshida ascites hepatoma cells obtained from exponential tumours.
# The animals were divided into groups: those receiving the test drugs and those receiving vehicle. Drug administration is by subcutaneous injection. Seven days after tumour transplantation, the animals are weighed and anaesthetised with a ketamine/xylacine mixture. The tumour is harvested from the peritoneal cavity, and its volume and cellularity evaluated. […]
# In an initial experiment, the tumour bearing rats were divided into three groups. […] The rats were monitored over a 3 day period.
smiles,measurement,setting,value
CC(=O)O[C@]1(C(C)=O)CC[C@H]2[C@@H]3C=C(C)C4=CC(=O)CC[C@]4(C)[C@H]3CC[C@@]21C [megestrol acetate],Cancer patients treated with a weight gain of greater than 5%,"[1]; cancer patients, significant component of the gain due to fat",15%
same,"Effect on appetite, calorie intake and nutritional status",[1],"improve appetite, calorie intake and nutritional status"
CC(=O)O[C@]1(C(C)=O)CC[C@H]2[C@@H]3C[C@H](C)C4=CC(=O)CC[C@]4(C)[C@H]3CC[C@@]21C [medroxy-progesterone acetate],"Effect on appetite, calorie intake and nutritional status",[1],"improve appetite, calorie intake and nutritional status"
"C[C@@H](NCCc1ccc(O)cc1)[C@@H](O)c1ccc(O)cc1.Cl (single isomer, unassigned) [(−)-ritodrine]",Relative potency of enantiomers,[2],more potent enantiomer
"COc1ccc(CC(C)NCC(O)c2ccc(O)c(NC=O)c2)cc1 (racemic) [racemic formoterol, (±)-N-[2-Hydroxy-5-[1(R*)-hydroxy-2-[1(R*)-methyl-2-(4-methoxyphenyl)ethylamino]ethyl]phenyl]formamide fumarate (2:1) monohydrate]",Total food intake,[3],45±2 g/100 g rat
